{"source": "ChEMBL document CHEMBL1201862", "about": "“PubChem BioAssay data set” (2004)", "key": {"Hexokinase-1": {"target": "T1, Hexokinase-1 (Homo sapiens, UniProt P19367)", "T1 sequence (P19367 whole entry)": "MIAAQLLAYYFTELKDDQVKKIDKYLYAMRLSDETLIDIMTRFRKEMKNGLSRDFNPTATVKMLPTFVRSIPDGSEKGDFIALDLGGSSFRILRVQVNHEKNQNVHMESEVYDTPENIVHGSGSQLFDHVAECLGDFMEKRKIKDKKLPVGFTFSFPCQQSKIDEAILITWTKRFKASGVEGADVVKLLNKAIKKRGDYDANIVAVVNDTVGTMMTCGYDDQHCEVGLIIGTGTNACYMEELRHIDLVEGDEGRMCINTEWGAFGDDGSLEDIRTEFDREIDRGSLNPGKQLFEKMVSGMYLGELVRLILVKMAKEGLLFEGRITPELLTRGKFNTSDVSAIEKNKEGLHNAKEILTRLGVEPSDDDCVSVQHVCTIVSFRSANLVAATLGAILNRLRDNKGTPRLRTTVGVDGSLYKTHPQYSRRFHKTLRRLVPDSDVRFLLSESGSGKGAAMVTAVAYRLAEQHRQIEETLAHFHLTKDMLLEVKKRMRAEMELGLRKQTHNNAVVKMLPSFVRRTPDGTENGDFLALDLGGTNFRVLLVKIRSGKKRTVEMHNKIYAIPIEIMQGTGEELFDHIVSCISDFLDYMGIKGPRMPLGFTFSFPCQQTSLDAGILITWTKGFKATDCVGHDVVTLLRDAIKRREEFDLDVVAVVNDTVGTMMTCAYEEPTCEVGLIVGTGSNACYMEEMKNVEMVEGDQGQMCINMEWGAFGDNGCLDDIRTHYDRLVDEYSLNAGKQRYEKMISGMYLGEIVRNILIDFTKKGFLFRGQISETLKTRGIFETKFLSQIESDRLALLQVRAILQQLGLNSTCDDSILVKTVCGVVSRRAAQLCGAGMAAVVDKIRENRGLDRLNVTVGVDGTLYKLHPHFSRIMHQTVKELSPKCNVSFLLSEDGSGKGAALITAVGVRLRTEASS", "assay": "SAR analysis of small molecule inhibitors of hexokinase domain containing I (HKDC1) in the hexokinase 1 selectivity assay. [Related pubchem assays (depositor defined):AID493160, AID493190]", "format": "functional"}, "Hexokinase HKDC1": {"target": "T2, Hexokinase HKDC1 (Homo sapiens, UniProt Q2TB90)", "T2 sequence (Q2TB90 whole entry)": "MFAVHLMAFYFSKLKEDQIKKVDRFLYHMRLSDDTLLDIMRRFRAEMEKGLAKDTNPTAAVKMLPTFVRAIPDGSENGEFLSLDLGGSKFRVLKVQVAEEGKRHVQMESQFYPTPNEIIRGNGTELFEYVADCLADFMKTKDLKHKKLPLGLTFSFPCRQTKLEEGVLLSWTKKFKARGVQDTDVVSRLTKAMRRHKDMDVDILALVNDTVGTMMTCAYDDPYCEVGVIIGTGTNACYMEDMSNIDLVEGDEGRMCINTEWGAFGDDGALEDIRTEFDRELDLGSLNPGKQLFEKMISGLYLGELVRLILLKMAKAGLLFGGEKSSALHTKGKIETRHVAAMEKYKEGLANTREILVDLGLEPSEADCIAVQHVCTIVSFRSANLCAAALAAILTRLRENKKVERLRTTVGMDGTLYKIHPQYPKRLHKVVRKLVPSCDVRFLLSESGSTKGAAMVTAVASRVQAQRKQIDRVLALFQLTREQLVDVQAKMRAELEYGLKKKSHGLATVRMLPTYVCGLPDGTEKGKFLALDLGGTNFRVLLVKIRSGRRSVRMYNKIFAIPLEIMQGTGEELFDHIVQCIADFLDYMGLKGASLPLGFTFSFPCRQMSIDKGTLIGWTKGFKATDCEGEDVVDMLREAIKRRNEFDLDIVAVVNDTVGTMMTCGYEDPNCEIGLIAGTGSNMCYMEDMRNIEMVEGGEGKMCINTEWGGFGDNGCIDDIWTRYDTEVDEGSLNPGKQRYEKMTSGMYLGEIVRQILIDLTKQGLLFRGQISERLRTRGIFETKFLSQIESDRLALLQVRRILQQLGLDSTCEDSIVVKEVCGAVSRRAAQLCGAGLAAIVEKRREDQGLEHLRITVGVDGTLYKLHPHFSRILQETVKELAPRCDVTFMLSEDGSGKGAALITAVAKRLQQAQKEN", "assay": "SAR analysis of small molecule inhibitors of hexokinase domain containing I (HKDC1). [Related pubchem assays (depositor defined):AID493160, AID493190]", "format": "functional"}, "[1]": {"target": "Melanin-concentrating hormone receptor 1 (Homo sapiens, UniProt Q99705)", "sequence (Q99705 whole entry)": "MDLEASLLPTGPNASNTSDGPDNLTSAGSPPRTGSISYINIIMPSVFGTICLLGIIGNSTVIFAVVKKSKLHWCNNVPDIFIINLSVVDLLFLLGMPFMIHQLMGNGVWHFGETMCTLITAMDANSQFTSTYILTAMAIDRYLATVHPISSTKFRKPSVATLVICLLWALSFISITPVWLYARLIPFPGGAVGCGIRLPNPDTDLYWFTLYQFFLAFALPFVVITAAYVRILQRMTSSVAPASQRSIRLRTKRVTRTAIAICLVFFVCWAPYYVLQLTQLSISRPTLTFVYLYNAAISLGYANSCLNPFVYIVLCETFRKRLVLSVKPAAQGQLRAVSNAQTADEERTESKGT", "assay": "Late-stage fluorescence-based counterscreen for antagonists of the G-protein coupled receptor 7 (GPR7): cell-based dose response assay to identify antagonists of the melanin-concentrating hormone receptor 1 (MCHR1) Set 5.", "format": "functional"}, "Streptokinase A": {"target": "T3, Streptokinase A (Streptococcus pyogenes serotype M1, UniProt P10520)", "T3 sequence (P10520 whole entry)": "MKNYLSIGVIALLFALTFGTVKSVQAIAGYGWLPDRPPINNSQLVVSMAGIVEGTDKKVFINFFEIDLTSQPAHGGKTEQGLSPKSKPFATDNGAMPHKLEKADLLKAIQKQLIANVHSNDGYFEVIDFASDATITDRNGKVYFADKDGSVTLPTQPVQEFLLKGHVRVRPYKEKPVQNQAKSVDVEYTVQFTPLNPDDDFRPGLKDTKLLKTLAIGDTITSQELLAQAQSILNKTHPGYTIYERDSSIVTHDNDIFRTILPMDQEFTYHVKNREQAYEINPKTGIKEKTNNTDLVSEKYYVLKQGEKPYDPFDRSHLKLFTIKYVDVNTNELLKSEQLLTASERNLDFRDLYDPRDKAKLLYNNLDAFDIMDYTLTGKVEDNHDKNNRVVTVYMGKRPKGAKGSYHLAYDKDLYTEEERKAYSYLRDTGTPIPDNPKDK", "assay": "viability-normalized secreted streptokinase activity reduction – plasminogen activation absorbance, OD405, dose response (AID 1914);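 note: secreted streptokinase activity via plasminogen activation per viability signal from cell pellet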", "format": "functional, Streptococcus pyogenes M1 GAS"}, "BJ [2]": {"system": "BJ", "assay": "BJ-TERT-LT-ST fibroblast viability loss – cell-based, RAS-independent, luminescence, dose response (AID 1935);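 note: BJ fibroblasts immortalized with TERT plus LT and ST oncogenes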", "format": "functional", "settings": "Homo sapiens"}, "[3]": {"assay": "DRD fibroblast viability loss – cell-based, non-viral oncogenic, luminescence, dose response (AID 1934)", "format": "functional", "settings": "Homo sapiens"}, "[4]": {"assay": "NIH3T3 cell viability loss – ATP luminescence, mouse fibroblasts, counter-screen, dose response (AID 2010);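 note: cells exposed to compound for about 90 hours before reading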", "format": "functional, cell-based"}, "[5]": {"assay": "Trypanosoma cruzi growth suppression in host cells – NIH3T3 host cells, beta-gal luminescence, confirmation (AID 2044);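 note: intracellular parasites grown in NIH/3T3 mouse fibroblasts as host cells; luminescent beta-galactosidase reporter signal from transgenic T. cruzi replicating inside host cells; inhibitors lower the luminescence signal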", "format": "functional, cell-based"}, "[6]": {"target": "ATP-dependent molecular chaperone HSP82 (Candida albicans (strain WO-1) (Yeast), UniProt C4YTQ8)", "sequence (C4YTQ8 whole entry)": "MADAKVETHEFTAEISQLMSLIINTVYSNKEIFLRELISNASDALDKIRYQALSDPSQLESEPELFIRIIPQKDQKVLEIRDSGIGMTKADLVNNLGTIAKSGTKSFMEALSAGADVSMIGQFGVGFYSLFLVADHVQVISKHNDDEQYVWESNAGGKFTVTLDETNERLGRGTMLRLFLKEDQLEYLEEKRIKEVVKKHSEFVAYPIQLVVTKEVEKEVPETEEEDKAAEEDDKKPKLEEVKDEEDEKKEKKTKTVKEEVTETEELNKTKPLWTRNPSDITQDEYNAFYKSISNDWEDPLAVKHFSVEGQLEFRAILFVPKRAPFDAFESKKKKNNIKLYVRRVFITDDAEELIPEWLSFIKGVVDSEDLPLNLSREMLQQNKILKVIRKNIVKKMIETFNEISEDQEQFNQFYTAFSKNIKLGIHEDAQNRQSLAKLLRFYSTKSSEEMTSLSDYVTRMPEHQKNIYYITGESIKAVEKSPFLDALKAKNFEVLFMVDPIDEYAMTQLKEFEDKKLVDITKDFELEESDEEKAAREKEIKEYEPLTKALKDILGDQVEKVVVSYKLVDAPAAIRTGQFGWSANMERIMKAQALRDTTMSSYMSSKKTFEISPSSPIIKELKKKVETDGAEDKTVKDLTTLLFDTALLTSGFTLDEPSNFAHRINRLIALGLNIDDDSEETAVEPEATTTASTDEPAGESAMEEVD", "assay": "steroid-induced GRE reporter decrease in yeast – S. cerevisiae, luminescence, Hsp90 inhibitor project, dose response (AID 2400);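 note: beta-galactosidase luminescence from glucocorticoid response element reporter as proxy for Hsp90 function; inhibitor potency where signal loss means Hsp90 inhibition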", "format": "functional, cell-based"}, "[7]": {"system": "Streptococcus sp. 'group A'", "assay": "Streptococcus pyogenes SK(-)GAS viability under kanamycin – luminescence, BacTiterGlo, confirmation, counter-screen for streptokinase expression inhibitor project, dose response (AID 1900)", "format": "functional, organism-based"}, "[8]": {"assay": "fluconazole-exposed Candida albicans growth modulators – fluorescence, retest, confirmation (AID 2467)", "format": "functional, cell-based"}, "[9]": {"assay": "NIH-3T3 fibroblast cytotoxicity, dose response, cytotoxicity control, cell-based, fluorescence, Alamar Blue, secondary assay (AID 2327);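 note: NIH-3T3 mouse fibroblasts cultured with fluconazole at 8 µg/mL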", "format": "functional"}, "[10]": {"target": "Serine/threonine-protein phosphatase (Candida dubliniensis (strain CD36 / CBS 7987 / NCPF 3949 / NRRLY-17841) (Yeast), UniProt B9W6M3)", "sequence (B9W6M3 whole entry)": "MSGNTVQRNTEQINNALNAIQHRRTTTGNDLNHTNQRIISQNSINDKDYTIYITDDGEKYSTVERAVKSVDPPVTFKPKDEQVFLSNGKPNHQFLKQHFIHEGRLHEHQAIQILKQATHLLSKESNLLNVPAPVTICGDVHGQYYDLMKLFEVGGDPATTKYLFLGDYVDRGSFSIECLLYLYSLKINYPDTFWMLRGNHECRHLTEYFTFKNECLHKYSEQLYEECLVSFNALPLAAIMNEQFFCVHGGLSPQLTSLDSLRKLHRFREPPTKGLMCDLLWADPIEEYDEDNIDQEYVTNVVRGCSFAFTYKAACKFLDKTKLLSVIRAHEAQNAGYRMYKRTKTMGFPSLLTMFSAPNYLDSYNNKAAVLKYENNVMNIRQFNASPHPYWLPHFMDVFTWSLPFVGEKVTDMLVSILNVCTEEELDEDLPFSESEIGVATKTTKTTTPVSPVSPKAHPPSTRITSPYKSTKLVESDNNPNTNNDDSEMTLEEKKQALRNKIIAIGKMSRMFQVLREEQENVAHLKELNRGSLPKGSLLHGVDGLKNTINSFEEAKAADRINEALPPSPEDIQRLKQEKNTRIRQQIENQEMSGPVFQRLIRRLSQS", "assay": "blockers of CaCl2-induced CDRE-lacZ signaling – S. cerevisiae, luminescence, secondary, dose response (AID 2388);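 note: yeast reporter cells carrying a calcineurin-responsive lacZ construct stimulated with calcium chloride; luminescent beta-galactosidase reporter signal in whole cells rather than isolated phosphatase activity; potency for inhibition where a drop in reporter signal means calcineurin blockade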", "format": "functional, cell-based"}, "BJ [11]": {"system": "BJ", "assay": "cells", "format": "functional, cell-based", "settings": "Homo sapiens"}, "Streptococcus": {"system": "Streptococcus", "assay": "GAS UMAA2166 growth inhibition – luminescence, BacTiterGlo, counter-screen for streptokinase expression inhibitor project, dose response (AID 1915);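 note: potency for reduction of bacterial viability or growth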", "format": "functional, organism-based"}, "BJ [12]": {"system": "BJ", "assay": "BJ-TERT fibroblast viability loss – cell-based, RAS-independent, luminescence, dose response (AID 1933)", "format": "functional", "settings": "Homo sapiens"}, "INS1": {"system": "INS1", "assay": "INS-1E survival protection against cytokine death – cell-based, luminescence, retest, dose response (AID 449756);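 note: cell death triggered by IL-1 beta plus TNF-alpha plus IFN-gamma mixture; protective hits raise ATP signal compared with cytokine alone wells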", "format": "functional", "settings": "Rattus norvegicus"}}, "note": "Active and inactive are the calls of the source. Cut-off read from the data, not from the text of the source, for most assays here: actives have a measured EC50 and inactives only a lower limit.", "data": [{"compound": "O=C(Nc1nnc(SCc2ccccc2)s1)c1ccc2ncsc2c1", "values": [{"measurement": "IC50", "setting": "Hexokinase-1", "value": "> 80 µM (inactive)"}, {"measurement": "IC50", "setting": "Hexokinase HKDC1", "value": "> 80 µM (inactive)"}]}, {"compound": "CCc1ccccc1Cn1ncc(Cl)c(Oc2ccc(OC)cc2)c1=O", "values": [{"measurement": "IC50", "setting": "[1]", "value": "4.62 µM (active)"}]}, {"compound": "Nc1nonc1-n1nnc(C(=O)N/N=C/c2cc(Cl)ccc2O)c1CN1CCCCCC1", "values": [{"measurement": "EC50", "setting": "Streptokinase A", "value": "> 150 µM (not active)"}, {"measurement": "EC50", "setting": "BJ [2]", "value": "> 75 µM (not active)"}, {"measurement": "EC50", "setting": "[3]", "value": "55.4 µM (active)"}, {"measurement": "EC50", "setting": "[4]", "value": "6.91 µM (active)"}, {"measurement": "EC50", "setting": "[5]", "value": "1.39 µM (active)"}, {"measurement": "EC50", "setting": "[6]", "value": "> 150 µM (inactive)"}, {"measurement": "EC50", "setting": "[7]", "value": "4.87 µM (active)"}, {"measurement": "EC50", "setting": "[8]", "value": "0.296 µM (active)"}, {"measurement": "EC50", "setting": "[9]", "value": "29.6 µM (active)"}, {"measurement": "EC50", "setting": "[10]", "value": "> 180 µM (inactive)"}, {"measurement": "EC50", "setting": "BJ [11]", "value": "115 µM (active)"}, {"measurement": "EC50", "setting": "Streptococcus", "value": "20.4 µM (active)"}, {"measurement": "EC50", "setting": "BJ [12]", "value": "24.9 µM (active)"}, {"measurement": "AC50", "setting": "INS1", "value": "1.85 µM (active)"}]}]}
